Measurements from patent US12594278B2, “Method for treatment of muscular dystrophy” (CHILDREN'S NATIONAL MEDICAL CENTER, priority 2019, dated 2026).

Assays:
mdx mice = conditions: previously shown; cited from earlier work
B6A/J FAPs = assay: Spontaneous adipogenesis of B6A/J FAPs in culture with batimastat (Oil Red O); type: cell-based, mouse; conditions: 10 μM batimastat from day 3 in culture; 40,000 FAPs from 12Mo B6A/J mice; vs untreated
Protocol: To test this, and to independently confirm the benefit of inhibiting adipogenic differentiation of FAPs for dysferlinopathy, a drug was used to inhibit adipogenic differentiation of FAPs. […] To test the ability of batimastat to prevent the spontaneous adipogenesis of B6A/J FAPs, 40,000 FAPs isolated from 12Mo B6A/J mice were treated with 10 μM batimastat starting from 3 days in culture. Using Oil Red O, the extent of adipogenic differentiation of these FAPs after 14 days in culture was quantified in vitro (FIG. 11A).
Isolation and In Vitro Adipogenesis of FAPs. FAPs were isolated from the hindlimb muscles of 6Mo B6A/J mice in a modified protocol from previously published studies. Mice were euthanized and the tibialis anterior, extensor digitorum longus, gastrocnemius, soleus, quadriceps and psoas were immediately dissected. Non-muscle tissue including tendon, nerve and overlying fascia were carefully removed, and muscles were minced finely in a sterile dish and incubated in Collagenase II (2.5 U/ml, ThermoFisher, #17101015) in PBS for 30 min at 37° C. The resulting slurry was washed with sterile PBS before further digest in Collagenase D (1.5 U/ml, Sigma Aldridge, #COLLD-RO) and Dispase II (2.4 U/ml, Sigma Aldridge, #D4693) in PBS for 60 min at 37° C. […]

For CNC(=O)[C@H](Cc1ccccc1)NC(=O)[C@H](CC(C)C)[C@H](CSc1cccs1)C(=O)NO [batimastat], the “fibrosis in mdx mice” value (mdx mice) is listed as “reduce fibrosis”, the “muscle function in mdx mice” value (mdx mice) is listed as “increase muscle function” and the “spontaneous adipogenesis of the B6A/J FAPs (Oil Red O)” value (B6A/J FAPs) is listed as “reduced spontaneous adipogenesis”.
